According to BindingDB's records for doi:10.1016/S0960-894X(98)00531-9 (Glaxo Wellcome Research and Development, 1999):

Target: T1, Chymotrypsin-C (Homo sapiens, UniProt Q99895)
T1 sequence (Q99895 whole entry): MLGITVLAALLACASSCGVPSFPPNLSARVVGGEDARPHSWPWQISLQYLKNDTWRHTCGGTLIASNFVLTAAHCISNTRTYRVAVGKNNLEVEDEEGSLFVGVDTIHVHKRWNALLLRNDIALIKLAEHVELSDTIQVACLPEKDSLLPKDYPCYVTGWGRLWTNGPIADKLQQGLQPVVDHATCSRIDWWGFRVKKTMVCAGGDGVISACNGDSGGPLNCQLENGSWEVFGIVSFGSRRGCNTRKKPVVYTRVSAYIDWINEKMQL
Assay: ChEBML_49751
Protocol: Compound was evaluated for the inhibition of Chymotrypsinogen

| SMILES | IC50 [µM] |
| --- | --- |
| N=C(N)c1ccc(C[C@H]2C(=O)O[C@H]3CCC[C@@H]32)cc1 [4-((3R,3aR,6aS)-2-Oxo-hexahydro-cyclopenta[b]furan-3-ylmethyl)-benzamidine; compound with acetic acid] | > 100 |

Target: not listed separately
Assay: Compound was evaluated for the inhibition of Chymotrypsinogen

| SMILES | IC50 [µM] |
| --- | --- |
| O=C1O[C@H]2CCC[C@@H]2[C@H]1Cc1ccccc1 [(3R,3aR,6aS)-3-Benzyl-hexahydro-cyclopenta[b]furan-2-one] | > 100 |
| CC(C)=CC(=O)C[C@@H]1C(=O)O[C@H]2CCC[C@@H]21 [(3S,3aR,6aS)-3-(4-Methyl-2-oxo-pent-3-enyl)-hexahydro-cyclopenta[b]furan-2-one] | > 100 |
| O=C1O[C@H]2CCC[C@@H]2[C@@H]1Cc1ccccc1 [(3S,3aR,6aS)-3-Benzyl-hexahydro-cyclopenta[b]furan-2-one] | > 100 |
| O=C1O[C@H]2CCC[C@@H]2[C@@H]1Sc1ccccc1 [(3S,3aS,6aS)-3-Phenylsulfanyl-hexahydro-cyclopenta[b]furan-2-one] | > 100 |
| N=C(N)CCCC[C@H]1C(=O)O[C@H]2CCC[C@@H]21 | > 100 |
| N=C(N)c1cccc(C[C@H]2C(=O)O[C@H]3CCC[C@@H]32)c1 [3-((3R,3aR,6aS)-2-Oxo-hexahydro-cyclopenta[b]furan-3-ylmethyl)-benzamidine; compound with acetic acid] | > 100 |
| O=C1O[C@H]2CCC[C@@H]2[C@H]1Sc1ccccc1 [(3R,3aS,6aS)-3-Phenylsulfanyl-hexahydro-cyclopenta[b]furan-2-one] | > 0.1 |
